Source: publication PMC6009979, “The role of 5-arylalkylamino- and 5-piperazino- moieties on the 7-aminopyrazolo[4,3-d]pyrimidine core in affecting adenosine A1 and A2A receptor affinity and selectivity profiles” (Journal of Enzyme Inhibition and Medicinal Chemistry, 2017)

How the values were obtained:
hA1 AR = biological target: T1, hA1 AR (Homo sapiens, UniProt P30542); test: [3H]DPCPX competition binding to hA1 CHO membranes; conditions: for Ki: mean ± SEM of four assays, read-out: Binding experiments Ki hA1; for Binding experiments I% hA1: inhibition at 1 μM
T1 construct: expressed in transfected cells; host or cells: CHO cells (membranes)
T1 sequence (P30542 1-326): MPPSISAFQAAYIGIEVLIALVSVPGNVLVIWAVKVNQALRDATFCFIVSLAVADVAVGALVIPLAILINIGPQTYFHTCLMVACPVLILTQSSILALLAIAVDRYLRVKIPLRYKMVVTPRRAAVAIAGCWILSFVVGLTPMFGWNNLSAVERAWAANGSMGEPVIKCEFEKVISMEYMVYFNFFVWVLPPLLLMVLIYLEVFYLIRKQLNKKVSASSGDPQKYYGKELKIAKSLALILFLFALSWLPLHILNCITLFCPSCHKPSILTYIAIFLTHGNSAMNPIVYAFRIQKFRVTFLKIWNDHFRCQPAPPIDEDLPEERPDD

hA2A AR = biological target: T2, hA2A AR (Homo sapiens, UniProt P29274); test: [3H]ZM241385 competition binding to hA2A CHO membranes; conditions: [3H]ZM241385, hA2A CHO; for Ki: mean ± SEM of four assays, read-out: Binding experiments Ki hA2A; for Binding experiments I% hA2A: inhibition at 1 μM
T2 construct: expressed in transfected cells; host or cells: CHO cells (membranes)
T2 sequence (P29274 whole entry): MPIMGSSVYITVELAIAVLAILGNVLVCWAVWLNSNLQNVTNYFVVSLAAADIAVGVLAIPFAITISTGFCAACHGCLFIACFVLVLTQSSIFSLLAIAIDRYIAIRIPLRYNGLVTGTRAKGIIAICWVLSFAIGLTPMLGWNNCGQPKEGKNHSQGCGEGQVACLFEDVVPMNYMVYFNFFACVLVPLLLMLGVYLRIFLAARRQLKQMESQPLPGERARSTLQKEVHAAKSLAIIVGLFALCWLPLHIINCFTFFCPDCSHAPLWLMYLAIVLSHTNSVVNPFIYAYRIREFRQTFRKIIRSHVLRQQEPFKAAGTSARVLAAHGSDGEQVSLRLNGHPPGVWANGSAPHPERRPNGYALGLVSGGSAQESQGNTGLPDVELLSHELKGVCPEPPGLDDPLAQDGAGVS

hA3 AR = biological target: T3, hA3 AR (Homo sapiens, UniProt P0DMS8); test: [125I]AB-MECA competition binding to hA3 CHO membranes; conditions: for Ki: mean ± SEM of four assays, read-out: Binding experiments Ki hA3; for inhibition at 1 µM / inhibition: read-out: Binding experiments I% hA3, inhibition at 1 μM
T3 construct: expressed in transfected cells; host or cells: CHO cells (membranes)
T3 sequence (P0DMS8 1-318): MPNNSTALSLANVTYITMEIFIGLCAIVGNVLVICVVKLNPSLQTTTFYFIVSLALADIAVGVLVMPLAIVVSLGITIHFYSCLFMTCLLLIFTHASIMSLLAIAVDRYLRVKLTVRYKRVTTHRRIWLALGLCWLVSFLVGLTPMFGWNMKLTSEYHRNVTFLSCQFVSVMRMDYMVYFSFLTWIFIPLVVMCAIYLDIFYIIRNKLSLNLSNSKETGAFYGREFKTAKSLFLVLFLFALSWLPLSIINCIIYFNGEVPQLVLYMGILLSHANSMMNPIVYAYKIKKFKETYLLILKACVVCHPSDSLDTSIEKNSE
Procedure: All synthesized compounds were tested to evaluate their affinity at human A1, A2A and A3 ARs. Displacement experiments of [^3H]DPCPX (1 nM) to hA1 CHO membranes (50 µg of protein/assay) and at least 6–8 different concentrations of antagonists for 120 min at 25 °C in 50 mM Tris-HCl buffer pH 7.4 were performed. Non-specific binding was determined in the presence 1 µM of DPCPX (≤10% of the total binding). […] Competition binding experiments to hA3 CHO membranes (50 µg of protein/assay) were performed incubating 0.5 nM [^125I]AB-MECA, 50 mM Tris-HCl buffer, 10 mM MgCl2, 1 mM EDTA, pH 7.4 and at least 6–8 different concentrations of examined ligands for 60 min at 37 °C[54]. Non-specific binding was defined as binding in the presence of 1 µM AB-MECA and was about 20% of total binding. Bound and free radioactivity were separated by filtering the assay mixture through Whatman GF/B glass fiber filters by using a Brandel cell harvester. The filter bound radioactivity was counted by Scintillation Counter Packard Tri Carb 2810 TR with an efficiency of 58%.
(§1) The protein concentration was determined according to a Bio-Rad method[56] with bovine albumin as a standard reference. Inhibitory binding constant (Ki) values were calculated from those of IC50 according to Cheng & Prusoff equation Ki = IC50/(1 + [C*]/KD*), where [C*] is the concentration of the radioligand and KD* its dissociation constant. A weighted non-linear least-squares curve fitting program LIGAND[58] was used for computer analysis of inhibition experiments. IC50 values obtained in cyclic AMP assay were calculated by non-linear regression analysis using the equation for a sigmoid concentration–response curve (Graph-PAD Prism, San Diego, CA).

hA2B AR = biological target: T4, hA2B AR (Homo sapiens, UniProt P29275); test: cAMP assay in hA2B CHO cells stimulated by 200 nM NECA; type: cell-based; conditions: read-out: cAMP assays I% hA2B
T4 construct: expressed in transfected cells; host or cells: CHO cells
T4 sequence (P29275 1-332): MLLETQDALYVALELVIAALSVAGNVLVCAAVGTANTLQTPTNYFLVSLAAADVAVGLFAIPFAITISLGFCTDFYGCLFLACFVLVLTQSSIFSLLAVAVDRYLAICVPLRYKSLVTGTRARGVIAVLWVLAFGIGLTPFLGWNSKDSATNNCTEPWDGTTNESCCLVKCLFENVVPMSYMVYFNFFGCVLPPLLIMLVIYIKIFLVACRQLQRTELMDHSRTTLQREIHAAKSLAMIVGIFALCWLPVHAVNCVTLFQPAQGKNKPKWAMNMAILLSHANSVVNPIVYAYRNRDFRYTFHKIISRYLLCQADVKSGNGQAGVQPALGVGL
Procedure: CHO cells transfected with hA2B AR subtypes were washed with phosphate-buffered saline, diluted trypsin and centrifuged for 10 min at 200 g. The cells (1 × 10^6 cells/assay) were suspended in 0.5 ml of incubation mixture (mM): NaCl 15, KCl 0.27, NaH2PO4 0.037, MgSO4 0.1, CaCl2 0.1, Hepes 0.01, MgCl2 1, glucose 0.5, pH 7.4 at 37 °C, 2 IU/ml adenosine deaminase and 4–(3-butoxy-4-methoxybenzyl)-2-imidazolidinone (Ro 20–1724) as phosphodiesterase inhibitor and preincubated for 10 min in a shaking bath at 37 °C. The potency of antagonists to the A2B AR was determined by the inhibition of NECA (200 nM)-induced cyclic AMP production. The reaction was terminated by the addition of cold 6% trichloroacetic acid (TCA). The TCA suspension was centrifuged at 2000 g for 10 min at 4 °C and the supernatant was extracted four times with water saturated diethyl ether. The final aqueous solution was tested for cyclic AMP levels by a competition protein binding assay. Samples of cyclic AMP standard (0–10 pmoles) were added to each test tube containing [^3H] cyclic AMP and incubation buffer (trizma base 0.1 M, aminophylline 8.0 mM, 2-mercaptoethanol 6.0 mM, pH 7.4). The binding protein prepared from beef adrenals was added to the samples previously incubated at 4 °C for 150 min, and, after the addition of charcoal, was centrifuged at 2000 g for 10 min. The clear supernatant was counted in a Scintillation Counter Packard Tri Carb 2810 TR with an efficiency of 58%.
as §1

SMILES	Ki (hA1 AR) [nM]	Ki (hA2A AR) [nM]	Ki (hA3 AR) [nM]	inhibition at 1 µM (hA2B AR) [%]	Binding experiments I% hA1 (hA1 AR) [%]	Binding experiments I% hA2A (hA2A AR) [%]	inhibition at 1 µM (hA3 AR) [%]	inhibition (hA3 AR) [%]
Nc1nc(Nc2ccc(O)cc2)nc2cn(-c3ccccc3)nc12 [Compound 4, 7-Amino-5-(4-hydroxyphenyl)amino-2-phenyl-2H-pyrazolo[4,3-d]pyrimidine]	481 ± 42	–	–	10	–	40	8	–
Nc1nc(NCc2ccccc2)nc2cn(-c3ccccc3)nc12 [Compound 5, 7-Amino-5-benzylamino-2-phenyl-2H-pyrazolo[4,3-d]pyrimidine]	25 ± 3	123 ± 11	28 ± 3	2	–	–	–	–
Nc1nc(NCCc2ccccc2)nc2cn(-c3ccccc3)nc12 [Compound 6, 7-Amino-5-(2-phenylethyl)amino-2-phenyl-2H-pyrazolo[4,3-d]pyrimidine]	11.5 ± 1.2	–	–	1	–	40	38	–
Cn1cc2nc(Nc3ccccc3)nc(N)c2n1 [Compound 8, 7-Amino-2-methyl-5-phenylamino-2H-pyrazolo[4,3-d]pyrimidine]	–	–	–	1	1	4	1	–
Cn1cc2nc(NCc3ccccc3)nc(N)c2n1 [Compound 9, 7-Amino-5-benzylamino-2-methyl-2H-pyrazolo[4,3-d]pyrimidine]	–	–	–	1	9	1	20	–
Nc1nc(NCc2ccccc2)nc2cn(Cc3ccccc3)nc12 [Compound 10, 7-Amino-2-benzyl-5-benzylamino-2H-pyrazolo[4,3-d]pyrimidine]	–	–	–	1	19	1	1	–
COc1ccc(CCNc2nc(N)c3nn(-c4ccccc4)cc3n2)cc1 [Compound 11, 7-Amino-5-[2–(4-methoxyphenyl)ethyl]amino-2-phenyl-2H-pyrazolo[4,3-d]pyrimidine]	153 ± 11	–	–	1	–	26	19	–
COc1ccc(CCNc2nc(N)c3nn(-c4ccccc4)cc3n2)cc1OC [Compound 13, 7-Amino-5-[2-(3,4-dimethoxyphenyl)ethyl]amino-2-phenyl-2H-pyrazolo[4,3-d]pyrimidine]	415 ± 39	189 ± 18	–	17	–	–	22	–
Nc1nc(N2CCN(c3ccccc3)CC2)nc2cn(-c3ccccc3)nc12 [Compound 15, 7-Amino-2-phenyl-5-(4-phenylpiperazin-1-yl)-2H-pyrazolo[4,3-d]pyrimidine]	647 ± 53	–	–	1	–	20	–	20
Nc1nc(N2CCN(Cc3ccccc3)CC2)nc2cn(-c3ccccc3)nc12 [Compound 16, 7-Amino-5-(4-benzylpiperazin-1-yl)-2-phenyl-2H-pyrazolo[4,3-d]pyrimidine]	162 ± 14	–	–	1	–	1	–	1

Continued, values first:

Ki (hA1 AR) [nM]	Ki (hA2A AR) [nM]	Ki (hA3 AR) [nM]	inhibition at 1 µM (hA2B AR) [%]	Binding experiments I% hA1 (hA1 AR) [%]	Binding experiments I% hA2A (hA2A AR) [%]	inhibition at 1 µM (hA3 AR) [%]	inhibition (hA3 AR) [%]	SMILES
67 ± 5	412 ± 37	13 ± 2	2	–	–	–	–	Nc1nc(Nc2ccccc2)nc2cn(-c3ccccc3)nc12 [Compound 1, 7-Amino-5-phenylamino-2-phenyl-2H-pyrazolo[4,3-d]pyrimidine]
–	–	27 ± 3	1	33	8	–	–	COc1ccc(Nc2nc(N)c3nn(-c4ccccc4)cc3n2)cc1 [Compound 2, 7-Amino-5-(4-methoxyphenyl)amino-2-phenyl-2H-pyrazolo[4,3-d]pyrimidine]
–	–	61 ± 8	2	1	1	–	–	Nc1nc(Nc2ccc(Cl)cc2Cl)nc2cn(-c3ccccc3)nc12 [Compound 3, 7-Amino-5–(2,4-dichlorophenyl)amino-2-phenyl-2H-pyrazolo[4,3-d]pyrimidine]
785 ± 72	–	–	1	–	29	24	–	Nc1nc(NCCCc2ccccc2)nc2cn(-c3ccccc3)nc12 [Compound 7, 7-Amino-5-(3-phenylpropyl)-2-phenyl-2H-pyrazolo[4,3-d]pyrimidines]
–	150 ± 14	–	1	27	–	1	–	Nc1nc(NCCc2ccc(O)cc2)nc2cn(-c3ccccc3)nc12 [Compound 12, 7-Amino-5-(4-hydroxyphenethyl)amino-2-phenyl-2H-pyrazolo[4,3-d]pyrimidine]
71 ± 6	238 ± 24	–	1	–	–	3	–	Nc1nc(NCCc2ccc(O)c(O)c2)nc2cn(-c3ccccc3)nc12 [Compound 14, 7-Amino-5-(3,4-dihydroxyphenethyl)amino-2-phenyl-2H-pyrazolo[4,3-d]pyrimidine]
518 ± 42	–	–	1	–	40	–	40	Nc1nc(N2CCN(CCc3ccccc3)CC2)nc2cn(-c3ccccc3)nc12 [Compound 17, 7-Amino-5-(4-phenylethylpiperazin-1-yl)-2-phenyl-2H-pyrazolo[4,3-d]pyrimidine]
204 ± 18	–	–	1	–	34	–	39	Nc1nc(N2CCN(Cc3c(F)cc(F)cc3F)CC2)nc2cn(-c3ccccc3)nc12 [Compound 18, 7-Amino-5-(4-(2,4,6-trifluoro)benzylpiperazin-1-yl)-2-phenyl-2H-pyrazolo[4,3-d]pyrimidine]
193 ± 17	–	–	2	–	29	–	1	Nc1nc(N2CCN(Cc3ccc(F)cc3Cl)CC2)nc2cn(-c3ccccc3)nc12 [Compound 19, 7-Amino-5-(4-(2-chloro-4-fluoro)benzylpiperazin-1-yl)-2-phenyl-2H-pyrazolo[4,3-d]pyrimidine]
